From publication PMC3071374, “High Throughput Screens Yield Small Molecule Inhibitors of Leishmania CRK3:CYC6 Cyclin-Dependent Kinase” (PLoS Neglected Tropical Diseases, 2011)

Columns and labels:
human CDK2:CycA = human CDK2:CycA (Homo sapiens, UniProt P24941); assay: Mammalian protein kinase assay / counter screen, CDK2:CYCA; assay type: biochemical; settings: BioFocus SFK48 library, counter screen
Experimental: Leishmania CRK3:CYC6 protein kinase assays were performed in 96-well microtiter plates in a final volume of 25 µl. Each assay point contained 7.5 ng of co-expressed histidine-tagged CRK3:CYC6 protein kinase complex (hereafter referred to as CRK3:CYC6) diluted in enzyme dilution buffer (EDB) (20 mM Tris-HCl pH 7.2, 0.5 mg ml^−1 BSA, 2.5% glycerol and 0.006% Brij-35). Assays were performed using the assay development buffer (ADB) (20 mM MOPS, pH 7.0, 25 mM β-glycerophosphate, 5 mM EGTA, 1 mM NaVO3, 1 mM DTT and 15 mM MgCl2) supplemented with 100 µM ATP, 0.5 µCi of γ-^32P ATP per reaction and histone H1 as a substrate used at 0.4 mg ml^−1. Two and three-fold titrations were set up to determine the concentration of enzyme to be used per assay point (7.5 ng) and to determine the concentrations of selected inhibitors required for 50% inhibition of Leishmania CRK3:CYC6 protein kinase activity (IC50 values), respectively. For IC50 determinations, assay mixes contained DMSO to a final concentration of 2%. Mammalian protein kinase assays were carried out according to the assay protocols developed at Cyclacel. Assays were carried out for 30 minutes at 30°C before stopping the reaction by the addition of an equal volume (25 µl) of 75 mM orthophosphoric acid. Samples were spotted onto a p81 cellulose filterplate (Nunc) and a vacuum applied. Wells were washed 3×200 µl with 75 mM phosphoric acid and the bottom of the plate sealed. 50 µl of Microscint 40 (Perkin Elmer) was added per well before incorporation of radioactivity was determined on a Topcount microplate scintillation counter.

WT promastigote L. major = assay: L. major promastigote growth inhibition assay (resazurin); assay type: cell-based; settings: BioFocus SFK48 HTS hits; 5 days at 25°C; read-out: IC50 against WT promastigote L. major
Experimental: L. major wild type promastigotes (Friedlin strain: WHO designation MHOM/JL/81/Friedlin) were grown at 25°C in HOMEM medium (Invitrogen cat no. 041-94699111) supplemented with 10% (v/v) heat inactivated foetal calf serum (HIFCS) and 1% (v/v) penicillin/streptomycin antibiotics.
CRK3 inhibitors were diluted into HOMEM medium supplemented with 10% HIFCS at twice the final screening concentration. Five-fold or ten-fold serial dilutions were carried out into HOMEM medium supplemented with 10% HIFCS. 100 µl of each drug concentration were added to a 96 well plate in duplicate. 100 µl of five-fold or ten-fold serial dilutions of 1 mM Pentamidine (Sigma) and an equivalent volume of 100% DMSO were included as positive and negative controls, in duplicate, respectively. L. major promastigote cells were diluted to a cell density of 2×10^6 cells ml^−1 in HOMEM media supplemented with 10% HIFCS and 100 µl added to all wells in 96 well plates. Plates were sealed with parafilm and incubated for 5 days at 25°C. After 5 days, 20 µl of filter sterile resazurin solution (12.5 mg resazurin salt in 100 ml PBS) (Sigma) was added to each of the wells and the plate incubated for a further 24 hours at 25°C. Fluorescence was measured using an Envision plate reader (Perkin Elmer) at 540 nm excitation wavelength and 590 nm emission wavelength.

Leishmania CRK3:CYC6 = Leishmania CRK3:CYC6 (Leishmania major, UniProt O96526); assay: IMAP fluorescence polarisation high throughput screen of CRK3:CYC6; assay type: biochemical, L. major; parameters: made in house; host or cells: E. coli BL21 (DE3) pLys-S; settings: BioFocus SFK48 library, primary concentration 20 µM
Leishmania CRK3:CYC6, sequence (O96526 entry or part of it): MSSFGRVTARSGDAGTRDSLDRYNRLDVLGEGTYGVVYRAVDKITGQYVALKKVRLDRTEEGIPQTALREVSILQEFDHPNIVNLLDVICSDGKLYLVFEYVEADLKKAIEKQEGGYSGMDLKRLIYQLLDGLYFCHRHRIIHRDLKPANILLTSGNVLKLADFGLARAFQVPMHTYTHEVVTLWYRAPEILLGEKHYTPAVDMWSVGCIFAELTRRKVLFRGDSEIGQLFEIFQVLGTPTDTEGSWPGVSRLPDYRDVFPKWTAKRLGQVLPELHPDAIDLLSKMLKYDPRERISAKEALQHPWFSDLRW
Experimental: (§1) Protein kinase assays were performed in 384-well non-treated black plates (Nunc) in a final volume of 20 µl. Each assay point contained 1.25 ng of co-expressed Leishmania CRK3:CYC6 protein kinase complex. […] The enzyme complex, peptide and ATP were made up in the IMAP complete reaction buffer (CRB) (10 mM Tris-HCl, pH 7.2, 10 mM MgCl2, 0.05% NaN3, 0.01% Tween-20 and 1 mM DTT). Assays were carried out for 1 hour 20 minutes at room temperature and the reaction stopped by the addition of 50 µl of the IMAP progressive binding reagent (Proprietary buffer from Molecular Devices plus tri-valent metal-containing nanoparticles). The assay was left to proceed for a further 1 hour 20 minutes at room temperature and the fluorescence polarization determined by a Perkin Elmer Fusion microplate reader, with excitation at 485 nm and emission at 535 nm.

CRK3:CYC6 = settings: peptide as substrate of CRK3:CYC6
CRK3:CYC6, sequence (O96526 entry or part of it): as above
Experimental: as §1
The IMAP fluorescent polarisation assay was selected for the high throughput screen. First a substrate finder assay was carried out with 61 potential serine/threonine protein kinase substrates. […] In order to establish the quantity of CRK3:CYC6 to use in the IMAP HTS assays, a two-fold enzyme titration was carried out (Figure S2 in Supporting Information Text S1).

Row | Compound | activity towards CDK2:CycA in the primary screen (human CDK2:CycA) | IC50 (WT promastigote L. major) [µM] | activity towards CRK3:CYC6 in the primary screen (Leishmania CRK3:CYC6) | ΔmP signal (CRK3:CYC6) [mP]
1 | NC(c1csc(NC(=O)Nc2cccc(Cl)c2)n1)c1ccccc1Cl (centres unmarked) [Compound 43] | active | 12.5 | active | 
2 | CN(C)Cc1csc(NC(=O)Nc2ccccc2Oc2ccccc2)n1 [Compound 44] | active | 14.4 | active | 
3 | COc1ccc(CC(N)c2csc(NC(=O)Nc3cc(OC)ccc3OC)n2)cc1 (centres unmarked) [Compound 45] | inactive | 6.8 | inactive | 
4 | COc1ccc(CNC(=O)Nc2nc(C(N)CCc3ccccc3)cs2)cc1 (centres unmarked) [Compound 46] | inactive | 7.8 | inactive | 
5 | FLAKSFGSPNRAYKK [CDK7 derived] |  |  |  | 180
6 | GGGPATPKKAKKL [Histone H1 derived] |  |  |  | 295
7 | GGGRSPGRRRRK [Generic Sequence] |  |  |  | 310
8 | PKTPKKAKKL [Histone H1 derived (aa 9–18)] |  |  |  | 280
9 | RRRFRPASPLRGPPK [DYRKtide] |  |  |  | 190
